Measured values taken from paper PMC11066040, “Nuclear phosphoinositide signaling promotes YAP/TAZ-TEAD transcriptional activity in breast cancer” (The EMBO Journal, 2024).

Tests used:
GST-YAP [1] = target: T1, GST-YAP (Homo sapiens, UniProt P46937); assay: microscale thermophoresis; assay type: binding
T1 construct: gene YAP1

GST-YAP [2] = target: T1, GST-YAP; assay: microscale thermophoresis; assay type: binding; conditions: pH 8.0, 50 mM NaCl, 80 mM KCl, 0.05% Tween-20; fluorescently labeled GST-YAP

T1 sequence (P46937 whole entry): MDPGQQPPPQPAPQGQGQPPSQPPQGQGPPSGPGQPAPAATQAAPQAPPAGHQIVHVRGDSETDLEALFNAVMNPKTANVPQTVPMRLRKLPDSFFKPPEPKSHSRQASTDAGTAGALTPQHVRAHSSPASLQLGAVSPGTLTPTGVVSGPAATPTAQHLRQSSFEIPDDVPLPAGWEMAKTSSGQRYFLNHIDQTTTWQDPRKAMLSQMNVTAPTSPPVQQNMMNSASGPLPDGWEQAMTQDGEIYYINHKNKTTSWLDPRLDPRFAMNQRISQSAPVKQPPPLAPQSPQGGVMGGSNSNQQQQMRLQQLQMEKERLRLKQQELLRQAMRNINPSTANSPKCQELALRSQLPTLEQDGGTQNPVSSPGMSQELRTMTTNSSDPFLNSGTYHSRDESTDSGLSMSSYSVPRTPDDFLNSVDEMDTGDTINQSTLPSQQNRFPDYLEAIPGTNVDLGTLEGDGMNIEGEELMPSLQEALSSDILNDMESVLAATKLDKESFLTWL

Row | Kd (GST-YAP [1]) [nM] | SMILES | binding (GST-YAP [2])
1 | 8.13 ± 2.63 | CCCCC/C=C\C/C=C\C/C=C\C/C=C\CCCC(=O)O[C@H](COC(=O)CCCCCCCCCCCCCCCCC)COP(=O)(O)O[C@H]1[C@H](O)[C@@H](OP(=O)(O)O)[C@H](OP(=O)(O)O)[C@@H](OP(=O)(O)O)[C@H]1O [PI(3,4,5)P3] | –
2 | 166 ± 13.5 | CCCCC/C=C\C/C=C\C/C=C\C/C=C\CCCC(=O)O[C@H](COC(=O)CCCCCCCCCCCCCCCCC)COP(=O)(O)O[C@@H]1[C@H](O)[C@H](O)[C@@H](OP(=O)(O)O)[C@H](OP(=O)(O)O)[C@H]1O [PI(4,5)P2] | –
3 | – | CCCCC/C=C\C/C=C\C/C=C\C/C=C\CCCC(=O)O[C@H](COC(=O)CCCCCCCCCCCCCCCCC)COP(=O)(O)O[C@@H]1[C@H](O)[C@H](O)[C@@H](O)[C@H](O)[C@H]1O [PI] | No significant binding of GST-YAP with PI was detected
